Source: ChEMBL document CHEMBL1201862, “PubChem BioAssay data set” (2004)
Calls of active or inactive are those of the source.

What was measured:
[1] = inhibitors of Vif binding to APOBEC3G peptide, primary screen, biochemical, TR-FRET, GST-Vif 1-94, biotin-A3G peptide, dose response retest (AID 1117319); type: functional;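 further: TR-FRET signal of purified GST-Vif binding a biotinylated A3G peptide; inhibitors lower the FRET signal by blocking Vif and A3G binding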
[2] = biological target: T1, Tyrosyl-DNA phosphodiesterase 2 (Homo sapiens, UniProt O95551); assay: human TDP2 enzyme inhibitors, dose response, biochemical, epi absorbance, IC50 (AID 743297)
T1 sequence (O95551 whole entry): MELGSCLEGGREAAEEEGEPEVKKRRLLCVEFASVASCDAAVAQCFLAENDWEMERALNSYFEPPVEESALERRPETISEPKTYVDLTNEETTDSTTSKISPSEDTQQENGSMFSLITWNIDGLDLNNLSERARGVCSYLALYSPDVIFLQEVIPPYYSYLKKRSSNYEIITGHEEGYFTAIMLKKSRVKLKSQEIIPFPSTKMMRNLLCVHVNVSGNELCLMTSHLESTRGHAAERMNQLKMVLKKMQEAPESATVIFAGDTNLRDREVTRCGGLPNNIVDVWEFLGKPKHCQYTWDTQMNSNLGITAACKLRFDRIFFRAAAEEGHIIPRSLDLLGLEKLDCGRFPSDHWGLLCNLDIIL

[3] = biological target: T2, Replicative DNA helicase DnaB (Mycobacterium tuberculosis, UniProt P9WMR3); assay: DnaB intein splicing inhibitors, dose response, biochemical, cell-free fluorescence (AID 449749); type: functional
T2 sequence (P9WMR3 whole entry): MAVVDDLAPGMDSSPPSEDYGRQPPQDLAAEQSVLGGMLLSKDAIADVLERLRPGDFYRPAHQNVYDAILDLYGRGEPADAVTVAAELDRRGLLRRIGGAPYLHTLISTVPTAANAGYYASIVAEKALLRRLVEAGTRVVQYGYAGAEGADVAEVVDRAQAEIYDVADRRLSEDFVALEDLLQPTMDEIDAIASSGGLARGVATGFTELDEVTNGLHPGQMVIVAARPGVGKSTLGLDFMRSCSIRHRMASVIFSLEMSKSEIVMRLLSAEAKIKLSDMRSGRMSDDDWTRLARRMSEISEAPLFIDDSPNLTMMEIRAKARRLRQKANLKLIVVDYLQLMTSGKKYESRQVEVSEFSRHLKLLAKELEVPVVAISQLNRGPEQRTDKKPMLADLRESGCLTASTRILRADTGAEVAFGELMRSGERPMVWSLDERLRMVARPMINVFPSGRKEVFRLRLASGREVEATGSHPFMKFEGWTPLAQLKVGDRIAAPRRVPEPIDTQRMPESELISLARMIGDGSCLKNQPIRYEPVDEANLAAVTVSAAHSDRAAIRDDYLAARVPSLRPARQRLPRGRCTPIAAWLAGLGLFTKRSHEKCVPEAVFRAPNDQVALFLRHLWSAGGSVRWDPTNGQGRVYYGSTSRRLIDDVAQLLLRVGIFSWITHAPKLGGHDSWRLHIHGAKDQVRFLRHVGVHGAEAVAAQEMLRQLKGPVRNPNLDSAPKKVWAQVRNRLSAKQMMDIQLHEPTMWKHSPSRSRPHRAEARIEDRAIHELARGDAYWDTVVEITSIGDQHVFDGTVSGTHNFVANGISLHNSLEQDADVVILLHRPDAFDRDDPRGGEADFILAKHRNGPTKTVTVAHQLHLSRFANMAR

Protein RecA = biological target: T3, Protein RecA (Mycobacterium tuberculosis, UniProt P9WHJ3); assay: Fluorescence Cell-Free Homogeneous Dose Retest to Identify Inhibitors of RecA-Intein Splicing Activity. [Related pubchem assays (depositor defined):AID2097, AID2223, AID489010, AID492950]; type: functional
T3 sequence (P9WHJ3 whole entry): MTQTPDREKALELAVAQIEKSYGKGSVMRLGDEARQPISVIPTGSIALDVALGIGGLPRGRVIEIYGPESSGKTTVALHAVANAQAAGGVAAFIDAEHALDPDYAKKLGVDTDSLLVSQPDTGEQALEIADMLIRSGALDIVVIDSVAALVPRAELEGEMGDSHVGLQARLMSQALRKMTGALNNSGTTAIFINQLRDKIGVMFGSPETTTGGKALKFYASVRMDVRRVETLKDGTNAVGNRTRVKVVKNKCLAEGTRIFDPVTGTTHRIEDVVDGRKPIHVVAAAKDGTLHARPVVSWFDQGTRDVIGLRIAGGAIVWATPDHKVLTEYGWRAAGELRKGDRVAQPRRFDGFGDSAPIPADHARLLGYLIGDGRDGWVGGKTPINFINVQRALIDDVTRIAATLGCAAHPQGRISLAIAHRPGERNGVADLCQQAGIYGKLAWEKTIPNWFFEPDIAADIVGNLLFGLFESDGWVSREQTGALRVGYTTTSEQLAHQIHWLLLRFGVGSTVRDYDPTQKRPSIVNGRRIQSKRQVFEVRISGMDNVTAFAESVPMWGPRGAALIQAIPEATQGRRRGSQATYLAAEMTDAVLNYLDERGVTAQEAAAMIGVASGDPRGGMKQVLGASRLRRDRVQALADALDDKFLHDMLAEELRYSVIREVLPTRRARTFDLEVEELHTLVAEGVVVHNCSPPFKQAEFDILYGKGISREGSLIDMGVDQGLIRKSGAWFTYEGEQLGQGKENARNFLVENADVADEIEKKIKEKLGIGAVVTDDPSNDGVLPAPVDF

Protein skinhead-1 = biological target: T4, Protein skinhead-1 (Caenorhabditis elegans, UniProt P34707); type: functional
T4 sequence (P34707 whole entry): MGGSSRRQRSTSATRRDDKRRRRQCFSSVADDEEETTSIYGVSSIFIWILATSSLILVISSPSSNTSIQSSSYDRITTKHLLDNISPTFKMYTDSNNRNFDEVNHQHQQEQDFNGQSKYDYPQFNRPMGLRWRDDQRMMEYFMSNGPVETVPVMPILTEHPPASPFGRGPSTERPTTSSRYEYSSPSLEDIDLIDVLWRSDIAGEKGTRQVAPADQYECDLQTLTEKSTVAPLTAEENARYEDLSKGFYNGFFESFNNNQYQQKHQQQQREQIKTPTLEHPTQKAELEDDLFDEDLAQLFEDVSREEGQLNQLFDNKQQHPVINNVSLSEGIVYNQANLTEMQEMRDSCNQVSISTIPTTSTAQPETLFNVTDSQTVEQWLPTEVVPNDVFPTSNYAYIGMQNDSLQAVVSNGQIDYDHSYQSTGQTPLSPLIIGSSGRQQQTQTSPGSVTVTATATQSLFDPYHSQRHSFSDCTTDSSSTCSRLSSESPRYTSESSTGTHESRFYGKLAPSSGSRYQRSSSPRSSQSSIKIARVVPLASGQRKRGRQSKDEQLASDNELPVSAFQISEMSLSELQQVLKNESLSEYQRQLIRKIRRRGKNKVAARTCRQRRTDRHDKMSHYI

[4] = biological target: T5, Oxysterols receptor LXR-beta (Homo sapiens, UniProt P55055); type: functional, cell-based;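 further: agonist activity at LXR measured by a cell-based luminescence readout across a dose range, run as a counterscreen for daf-12 agonists; HEK293 cells with Gal4-LXR fusion and GAL4-driven luciferase reporter; potency for activation of Gal4-LXR reporter so compounds are agonists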
T5 sequence (P55055 whole entry): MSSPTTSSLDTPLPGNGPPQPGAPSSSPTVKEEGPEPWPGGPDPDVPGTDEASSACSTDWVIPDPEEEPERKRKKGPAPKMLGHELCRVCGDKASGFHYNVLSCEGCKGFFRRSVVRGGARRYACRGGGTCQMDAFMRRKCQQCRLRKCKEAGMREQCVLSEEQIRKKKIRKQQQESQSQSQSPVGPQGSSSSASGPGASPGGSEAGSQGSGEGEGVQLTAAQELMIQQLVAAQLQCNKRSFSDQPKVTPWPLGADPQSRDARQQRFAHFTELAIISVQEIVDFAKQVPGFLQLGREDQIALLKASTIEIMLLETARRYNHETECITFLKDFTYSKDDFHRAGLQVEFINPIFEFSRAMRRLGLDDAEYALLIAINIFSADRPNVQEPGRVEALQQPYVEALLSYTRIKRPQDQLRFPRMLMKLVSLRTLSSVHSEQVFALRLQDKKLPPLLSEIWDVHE

[5] = biological target: Peroxisome proliferator-activated receptor gamma/Nuclear receptor coactivator 2 (Homo sapiens, UniProt P37231); type: functional;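 further: agonist potency for raising coactivator recruitment to the receptor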
Peroxisome proliferator-activated receptor gamma/Nuclear receptor coactivator 2, sequence (P37231 whole entry): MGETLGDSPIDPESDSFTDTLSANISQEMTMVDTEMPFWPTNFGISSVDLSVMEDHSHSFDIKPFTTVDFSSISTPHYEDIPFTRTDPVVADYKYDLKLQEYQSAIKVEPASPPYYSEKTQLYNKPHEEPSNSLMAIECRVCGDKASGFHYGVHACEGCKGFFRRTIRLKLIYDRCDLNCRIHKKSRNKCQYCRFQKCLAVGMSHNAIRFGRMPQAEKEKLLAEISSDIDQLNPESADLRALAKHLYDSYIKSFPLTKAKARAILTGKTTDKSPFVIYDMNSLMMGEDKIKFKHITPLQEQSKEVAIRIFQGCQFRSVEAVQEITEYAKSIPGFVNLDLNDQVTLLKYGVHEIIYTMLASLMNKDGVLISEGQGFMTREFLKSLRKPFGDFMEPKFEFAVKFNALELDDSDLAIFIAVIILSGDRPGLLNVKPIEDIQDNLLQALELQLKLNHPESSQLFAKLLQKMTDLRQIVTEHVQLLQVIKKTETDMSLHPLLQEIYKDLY
Peroxisome proliferator-activated receptor gamma/Nuclear receptor coactivator 2, sequence (Q15596 whole entry, further chain): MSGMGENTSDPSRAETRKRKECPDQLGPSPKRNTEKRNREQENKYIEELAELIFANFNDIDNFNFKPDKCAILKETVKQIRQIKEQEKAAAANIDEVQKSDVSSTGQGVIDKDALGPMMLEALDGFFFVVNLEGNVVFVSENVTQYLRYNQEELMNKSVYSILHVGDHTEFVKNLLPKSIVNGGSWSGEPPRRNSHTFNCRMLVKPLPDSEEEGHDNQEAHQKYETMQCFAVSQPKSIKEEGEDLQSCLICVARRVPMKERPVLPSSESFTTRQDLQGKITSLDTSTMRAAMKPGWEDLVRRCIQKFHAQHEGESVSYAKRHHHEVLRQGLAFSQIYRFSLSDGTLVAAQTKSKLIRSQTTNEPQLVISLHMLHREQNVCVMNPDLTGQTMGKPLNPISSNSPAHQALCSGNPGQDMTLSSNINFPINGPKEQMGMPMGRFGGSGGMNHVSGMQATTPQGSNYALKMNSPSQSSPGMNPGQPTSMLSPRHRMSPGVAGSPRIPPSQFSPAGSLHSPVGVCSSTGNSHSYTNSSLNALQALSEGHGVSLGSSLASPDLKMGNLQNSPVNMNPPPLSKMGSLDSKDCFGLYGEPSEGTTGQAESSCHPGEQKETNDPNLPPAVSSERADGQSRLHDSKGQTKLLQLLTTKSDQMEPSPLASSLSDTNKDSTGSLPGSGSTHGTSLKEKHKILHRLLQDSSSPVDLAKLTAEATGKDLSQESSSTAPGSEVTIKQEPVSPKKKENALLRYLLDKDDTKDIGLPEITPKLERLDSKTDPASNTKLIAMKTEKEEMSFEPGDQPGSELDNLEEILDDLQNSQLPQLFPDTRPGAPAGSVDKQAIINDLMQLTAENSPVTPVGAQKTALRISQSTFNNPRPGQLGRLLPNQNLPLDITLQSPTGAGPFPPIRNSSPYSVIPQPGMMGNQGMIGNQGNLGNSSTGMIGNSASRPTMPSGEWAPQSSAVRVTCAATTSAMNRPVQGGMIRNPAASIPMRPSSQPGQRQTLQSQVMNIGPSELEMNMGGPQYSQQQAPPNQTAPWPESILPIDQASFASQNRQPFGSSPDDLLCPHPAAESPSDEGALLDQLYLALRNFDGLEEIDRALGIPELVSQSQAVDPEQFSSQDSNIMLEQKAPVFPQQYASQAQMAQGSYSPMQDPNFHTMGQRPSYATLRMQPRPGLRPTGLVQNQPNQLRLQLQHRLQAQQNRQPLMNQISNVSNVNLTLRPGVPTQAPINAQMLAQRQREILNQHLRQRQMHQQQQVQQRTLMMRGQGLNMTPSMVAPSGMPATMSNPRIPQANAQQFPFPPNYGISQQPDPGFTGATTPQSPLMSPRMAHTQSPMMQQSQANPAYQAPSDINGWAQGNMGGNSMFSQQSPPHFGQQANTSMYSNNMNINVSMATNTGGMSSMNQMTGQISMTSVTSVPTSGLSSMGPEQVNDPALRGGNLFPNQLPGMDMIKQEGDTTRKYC

[6] = biological target: Peroxisome proliferator-activated receptor gamma/Nuclear receptor coactivator 3 (Homo sapiens, UniProt P37231); type: functional;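 further: agonist potency for raising coactivator recruitment to the receptor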
Peroxisome proliferator-activated receptor gamma/Nuclear receptor coactivator 3, sequence (P37231 whole entry): as the sequence (P37231 whole entry) above
Peroxisome proliferator-activated receptor gamma/Nuclear receptor coactivator 3, sequence (Q9Y6Q9 whole entry, further chain): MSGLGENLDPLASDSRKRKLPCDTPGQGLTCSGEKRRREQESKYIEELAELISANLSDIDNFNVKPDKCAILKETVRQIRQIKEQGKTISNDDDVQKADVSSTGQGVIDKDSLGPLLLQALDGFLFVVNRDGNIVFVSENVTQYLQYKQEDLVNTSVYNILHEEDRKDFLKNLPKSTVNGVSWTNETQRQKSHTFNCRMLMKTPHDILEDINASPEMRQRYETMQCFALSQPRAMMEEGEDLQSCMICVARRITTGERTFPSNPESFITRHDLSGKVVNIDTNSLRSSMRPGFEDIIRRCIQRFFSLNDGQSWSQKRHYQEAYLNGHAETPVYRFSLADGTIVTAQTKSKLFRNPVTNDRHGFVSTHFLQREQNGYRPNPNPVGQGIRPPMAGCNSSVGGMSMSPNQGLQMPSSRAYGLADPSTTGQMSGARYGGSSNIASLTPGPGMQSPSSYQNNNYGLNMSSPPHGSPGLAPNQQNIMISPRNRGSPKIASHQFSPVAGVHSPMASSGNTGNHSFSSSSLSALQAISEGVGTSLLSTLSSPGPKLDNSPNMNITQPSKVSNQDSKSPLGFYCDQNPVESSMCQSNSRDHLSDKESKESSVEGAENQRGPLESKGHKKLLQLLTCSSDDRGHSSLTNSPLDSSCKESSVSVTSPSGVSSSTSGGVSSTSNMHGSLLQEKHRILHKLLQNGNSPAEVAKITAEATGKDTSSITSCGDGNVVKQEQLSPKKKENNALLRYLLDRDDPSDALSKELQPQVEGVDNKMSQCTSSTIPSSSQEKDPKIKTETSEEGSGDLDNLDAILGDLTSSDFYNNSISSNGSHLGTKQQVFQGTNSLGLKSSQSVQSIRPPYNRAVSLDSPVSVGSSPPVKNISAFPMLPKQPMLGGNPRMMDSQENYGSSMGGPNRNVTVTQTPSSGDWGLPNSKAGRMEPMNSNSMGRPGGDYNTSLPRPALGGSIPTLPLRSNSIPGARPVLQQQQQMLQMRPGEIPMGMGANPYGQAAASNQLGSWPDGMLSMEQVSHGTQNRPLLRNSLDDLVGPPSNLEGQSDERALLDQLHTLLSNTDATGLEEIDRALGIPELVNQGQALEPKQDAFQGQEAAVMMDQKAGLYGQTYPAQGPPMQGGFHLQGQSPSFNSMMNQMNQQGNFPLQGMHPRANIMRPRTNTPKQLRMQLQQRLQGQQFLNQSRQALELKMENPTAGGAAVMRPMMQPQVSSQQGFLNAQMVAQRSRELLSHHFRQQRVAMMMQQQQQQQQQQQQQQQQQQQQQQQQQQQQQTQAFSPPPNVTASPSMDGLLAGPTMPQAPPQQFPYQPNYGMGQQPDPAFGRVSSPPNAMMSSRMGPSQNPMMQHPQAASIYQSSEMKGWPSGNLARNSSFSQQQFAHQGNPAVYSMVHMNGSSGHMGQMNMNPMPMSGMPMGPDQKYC

[7] = biological target: Peroxisome proliferator-activated receptor gamma/Nuclear receptor coactivator 1 (Homo sapiens, UniProt P37231); type: functional;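 further: agonist potency as compounds enhance coactivator SRC-1 recruitment to PPARgamma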
[8] = THP-1 cell cytotoxicity, dose response, cytotoxicity control for Vif-APOBEC3G degradation inhibitor project, THP-1 cells (AID 1117359); type: functional; settings: Human immunodeficiency virus 1, THP-1
[9] = P. falciparum Dd2 growth inhibitors, dose response, SYBR Green, cherry-picked samples (AID 1159567); type: functional, cell-based
[10] = biological target: T6, COUP transcription factor 2 (Homo sapiens, UniProt P24468); assay: Luminescence-based cell-based high throughput dose response assay to identify inhibitors of COUP-TFII (NR2F2).; type: functional;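 further: HEK293 cells transiently cotransfected with COUP-TFII expression vector and reporter; luciferase reporter luminescence driven by COUP-TFII from the pX2-168 reporter plasmid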
T6 sequence (P24468 whole entry): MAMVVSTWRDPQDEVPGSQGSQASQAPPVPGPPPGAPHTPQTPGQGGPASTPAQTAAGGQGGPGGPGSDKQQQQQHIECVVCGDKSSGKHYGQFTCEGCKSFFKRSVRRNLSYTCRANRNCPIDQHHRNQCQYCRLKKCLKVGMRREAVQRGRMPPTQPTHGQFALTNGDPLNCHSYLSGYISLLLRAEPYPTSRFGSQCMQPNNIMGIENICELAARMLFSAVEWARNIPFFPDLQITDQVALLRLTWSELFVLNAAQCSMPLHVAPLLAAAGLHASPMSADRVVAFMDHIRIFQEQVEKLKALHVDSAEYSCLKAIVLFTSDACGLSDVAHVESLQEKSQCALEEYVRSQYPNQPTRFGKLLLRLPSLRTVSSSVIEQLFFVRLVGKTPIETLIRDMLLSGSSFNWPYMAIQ

HEK293 = assay: inhibitors of LMP1-driven NF-kB reporter, dose response, cell-based, HEK293, luciferase, cherry-pick (AID 588343); type: functional; settings: Homo sapiens

CCS(=O)(=O)N1CCC(C(=O)NCc2ccccn2)CC1
IC50 [1]: > 100 µM (active)

Oc1ccc(/N=C/c2sc3ccccc3c2Cl)cc1
IC50 [2]: > 128 µM (inactive)
AC50 [3]: 137 µM (active)
EC50 (Protein RecA): > 380 µM (inactive)

FC(F)(F)c1cc(Cl)c2nc(-c3ccccc3)cn2c1
IC50 (Protein skinhead-1): > 100 µM (inactive)
EC50 [4]: > 67.5 µM (inactive)

O=C(c1ccccc1)c1cnc(-c2ccc(Cl)cc2)s1
EC50 [5]: 11.9 µM (not active)
EC50 [6]: 21.4 µM (not active)
EC50 [7]: 14.4 µM (not active)

Cc1c(C=O)c2ccccc2n1Cc1ccc(F)cc1
CC50 [8]: > 40 µM (active)

COc1ccc(C#Cc2ccc([C@H]3[C@@H](CO)N4CCCCN(C(=O)Nc5ccccc5F)C[C@@H]34)cc2)cc1
AC50 [9]: 5.66 µM (active)

COc1ccc(F)cc1S(=O)(=O)Nc1cc2c3c(c1)CC(=O)N3CCC2
CC50 [8]: > 40 µM (active)

CC(C)CNc1ncnc2c1ncn2[C@H]1CN(Cc2ccc(-c3ccccc3)cc2)C[C@@H](CO)O1
IC50 [10]: 9.84 µM (active)

CCc1cc(C(=O)Nc2ncccc2O)sc1C
AC50 (HEK293): 4.64 µM (active)
EC50 [4]: > 67.5 µM (inactive)
